In test [1] the target is T1, Interleukin-23 receptor (Homo sapiens, UniProt Q5VWK5).
T1 sequence (Q5VWK5 whole entry): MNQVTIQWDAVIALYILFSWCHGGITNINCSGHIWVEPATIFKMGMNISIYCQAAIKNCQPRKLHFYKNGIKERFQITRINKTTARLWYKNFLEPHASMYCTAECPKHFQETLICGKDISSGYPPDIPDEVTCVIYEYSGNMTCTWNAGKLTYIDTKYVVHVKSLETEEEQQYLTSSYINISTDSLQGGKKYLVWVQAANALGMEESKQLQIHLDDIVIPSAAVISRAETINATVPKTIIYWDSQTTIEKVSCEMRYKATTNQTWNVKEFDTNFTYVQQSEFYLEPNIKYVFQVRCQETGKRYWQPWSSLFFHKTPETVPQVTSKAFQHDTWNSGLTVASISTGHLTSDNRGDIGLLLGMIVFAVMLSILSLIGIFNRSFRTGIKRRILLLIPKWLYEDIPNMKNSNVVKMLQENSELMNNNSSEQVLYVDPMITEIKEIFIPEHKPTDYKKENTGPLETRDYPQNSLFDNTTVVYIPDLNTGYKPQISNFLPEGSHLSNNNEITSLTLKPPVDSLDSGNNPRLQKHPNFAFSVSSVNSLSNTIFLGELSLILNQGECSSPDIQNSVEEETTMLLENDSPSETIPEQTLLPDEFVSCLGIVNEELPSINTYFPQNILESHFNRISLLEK
Briefly: Binding affinity to recombinant human flag/His-tagged IL-23R (1 to 353 residues) expressed in HEK293F cells assessed as dissociation rate constant measured over 90 secs by surface plasmon resonance assay. Background: In SPR one partner is held on a chip, and binding of the other changes the refractive index at the surface.

Test [2] deals with T2, Interleukin-23 receptor (Homo sapiens) (UniProt Q5VWK5).
T2 sequence (whole entry): T1 sequence (Q5VWK5 whole entry)
Briefly: Binding affinity to recombinant human flag/His-tagged IL-23R (1 to 353 residues) expressed in HEK293F cells assessed as association rate constant measured over 90 secs by surface plasmon resonance assay.

Test [3] has as its target T1, Interleukin-23 receptor. Briefly: Binding affinity to recombinant human flag/His-tagged IL-23R (1 to 353 residues) expressed in HEK293F cells measured over 90 secs by surface plasmon resonance assay.
The target of test [4] is T1, Interleukin-23 receptor. Briefly: Binding affinity to recombinant human flag/His-tagged IL-23R (1 to 353 residues) expressed in HEK293F cells assessed as disruption of biotinylated IL-23 binding to receptor preincubated for 1 hr followed by biotinylated IL-23 addition measured after 1 hr by TR-FRET assay. Type of test: cell-based.
The target in test [5] is T1, Interleukin-23 receptor. Briefly: Binding affinity to recombinant human flag/His-tagged IL-23R (1 to 353 residues) expressed in HEK293F cells assessed as disruption of biotinylated IL-23 binding to receptor preincubated for 1 hr followed by biotinylated IL-23 addition measured after over night incubation by AlphaLISA assay. Type of test: cell-based. (Bead proximity is the source of the signal in Alpha formats.)

Broadly, the IC50 is the midpoint of a concentration-inhibition curve. Take `CC(=O)N[C@H]1CCSC[C@@H](C(=O)N[C@@H](Cc2ccc(OCCN)cc2)C(=O)N[C@@H](Cc2c[nH]c3ccccc23)C(=O)N[C@@](C)(CCCCN)C(=O)N[C@@H](CCC(=O)O)C(=O)N[C@@H](CC(N)=O)C(=O)NCC(N)=O)NC(=O)[C@H](CCC(N)=O)NC(=O)[C@H](Cc2c[nH]c3ccccc23)NC(=O)[C@H]([C@@H](C)O)NC(=O)[C@H](CCC(N)=O)NC1=O`: the Kd on Interleukin-23 receptor [1] is 2.74 ×10⁻² (1/s); at Interleukin-23 receptor [3], 1.81 to 2 nM. The Ka in test [2] is 1.51 ×10⁷ (1/Ms). Further, the IC50 at Interleukin-23 receptor [4] is 5.1 nM; at Interleukin-23 receptor [5] it was 2.7 nM.

These data come from ChEMBL document CHEMBL4196234, “Deciphering Binding Interactions of IL-23R with HDX-MS: Mapping Protein and Macrocyclic Dodecapeptide Ligands” (ACS Med Chem Lett, 2018).
